For the experiment, the target named is human 5-HT5A receptor (Homo sapiens (Human), UniProt P47898). In words: Test on a human 5-HT5A receptor binding inhibition ([3H]5-CT). As to conditions: membrane from HEK293 cells expressing human 5-HT5A receptor, Ki calculated from IC50. On the procedure: The ORF (open reading frame; protein coding region) of a human 5-HT5A receptor (Genbank AF498985) was cloned from a human hippocampus cDNA library, and then inserted into a pCR2.1 vector (Invitrogen), and Escherichia coli containing the plasmid was cultured in a large amount. Next, the full-length cDNA sequence of the human 5-HT5A receptor was analyzed, and recombined into a pCDNA3.1 vector (Invitrogen) as an expression vector and cultured in a large amount. HEK293 established cells (ATCC) derived from the human fetal kidney were seeded, the expression plasmid (1 μg) obtained above were added thereto with LIPOFECTAMINE 2000 (Invitrogen; 2 μl), the gene was transfected into HEK293 cells, and the expression cells were screened with a drug-resistant marker, Geneticin (G418 sulfate 500 μg/ml; Kanto Chemical Co., Inc.). Thus prepared recombinant cells which expressed the gene were cultured in a medium containing D-MEM (Dulbecco's modified eagle medium, Sigma), 10% FCS (Fetal calf serum: fetal bovine serum), 1% Pc./Sm (Penicillin/Streptomycin, Invitrogen), and 500 μg/ml G418 for 3 days. These experimental operations followed a manual for gene operation experiment and an instruction appended in a reagent, and the like, such as a known method (Sambrook, J. et al, Molecular Cloning-A Laboratory Manual”, Cold Spring Harabor laboratory, NY, 1989).
human 5-HT5A receptor, sequence (P47898 whole entry): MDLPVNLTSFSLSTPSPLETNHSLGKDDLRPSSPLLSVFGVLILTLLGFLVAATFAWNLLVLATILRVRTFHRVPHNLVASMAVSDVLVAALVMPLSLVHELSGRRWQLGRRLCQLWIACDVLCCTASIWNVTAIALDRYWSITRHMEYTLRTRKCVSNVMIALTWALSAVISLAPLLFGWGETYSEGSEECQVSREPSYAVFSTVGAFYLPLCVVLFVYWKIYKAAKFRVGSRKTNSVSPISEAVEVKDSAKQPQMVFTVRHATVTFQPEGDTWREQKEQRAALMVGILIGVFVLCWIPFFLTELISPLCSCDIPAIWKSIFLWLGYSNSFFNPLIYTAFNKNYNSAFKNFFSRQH
HEK293 cells for forced expressions of a human 5-HT5A receptor were cultured in a F500 plate, and scraped with a scraper. After centrifugation, the precipitate was collected, and an incubation buffer (50 mM Tris (HCl) (pH 7.4), 10 mM MgSO4, and 0.5 mM EDTA (ethylenediamine tetraacetic acid)) was added thereto. After homogenization, it was further centrifuged, and the incubation buffer was added to the precipitate, followed by thoroughly suspending. The operation was repeated, and protein concentration was measured, thereby completing preparation of the membrane.
A solution of the compound to be tested and 100 μM 5-CT (5-carboxamidetriptamine) in DMSO was added to a 96-well plate at 2 μl/well, suspended in an incubation buffer, and a membrane from HEK293 cells for forced expressions of a human 5-HT5A receptor prepared at 200 μg/ml was added at 100 μl/well. After incubation at room temperature for 15 minutes, a [^3H]5-CT solution (2 nM [^3H]5-CT, incubation buffer) was added thereto at 100 μl/well.
Separately, 100 μl of the solution was distributed into a liquid scintillation vial, and 2 ml of Aquasol II (registered trademark) was added thereto, followed by stirring. Then, radioactivity was measured by a liquid scintillation counter. It was incubated at 37° C. for 60 minutes. The reaction mixture was sucked into 96-well GF/C filter plate that had been pre-treated with 0.2% polyethyleneimine, and washed six times with an ice-cooled, 50 mM Tris (pH 7.5) buffer. The GF/C filter plate was dried.
Microscint TMPS (registered trademark) was added thereto at 40 μl/well. Radioactivity remaining on the GF/C filter plate was measured by a top counter.
The [^3H]5-CT binding inhibiting activity by the compound to be tested in each experiment was determined as an IC50 value with a radioactivity upon addition of DMSO alone being 0% inhibition, and a radioactivity upon addition of 1 μM 5-CT being 100% inhibition. Separately, Ki values were calculated from the Kd value of the [^3H]5-CT determined from Scatchard analysis, by the following equation. Ki=IC50(1+Concentraion of ligand added/Kd(4.95 nM))

On to `COc1ccc(F)c(-c2ccnc3c(C)cc(C(=O)N=C(N)N)cc23)c1F` [Example 78], for which the Ki ([3H]5-CT binding) is 10 to 100 nM.
Same read-out and setting: in the case of `Cc1cc(-c2ccccc2F)c2cc(C(=O)N=C(N)N)ccc2n1` [Example 82] it was 10 to 100 nM; in that of `NC(N)=NC(=O)c1ccc2nccc(-c3c(F)cccc3Cl)c2c1` [Example 11], 1 to 10 nM; in that of `COc1cc(C#N)ccc1-c1c(C)c(C)nc2ccc(C(=O)N=C(N)N)cc12` [Example 120], 10 to 100 nM.
Still for that read-out and setting: to `COc1cc(Cl)ccc1-c1ccnc2c(C)cc(C(=O)N=C(N)N)cc12` [Example 77] belongs 1 to 10 nM; to `NC(=O)c1cc(-c2c(F)cc(F)cc2F)c2cc(C(=O)N=C(N)N)ccc2n1` [Example 30], 10 to 100 nM; to `Cc1cc(C(=O)N=C(N)N)cc2c(-c3cc(F)ccc3Cl)ccnc12` [Example 64], 10 to 100 nM.
Consider `Cc1cc(C(=O)N=C(N)N)cc2c(-c3cccc(Cl)c3Cl)ccnc12` [Example 46], for which, under “[3H]5-CT binding”, the Ki is 1 to 10 nM.
Take `NC(N)=NC(=O)c1ccc2c(F)cnc(-c3c(F)cccc3Cl)c2c1` [Example 147]: the Ki ([3H]5-CT binding inhibition) is 1.6 nM.
In the case of `COc1cccc(F)c1-c1c(C)c(C)nc2ccc(C(=O)N=C(N)N)cc12` [Example 129], under “[3H]5-CT binding”, the Ki was 10 to 100 nM.
As to `NC(N)=NC(=O)c1ccc2c(F)cnc(-c3ccccc3Cl)c2c1` [Example 161], the Ki reads like this: ([3H]5-CT binding inhibition) 3.4 nM; ([3H]5-CT binding) 1 to 10 nM.
On to `NC(N)=NC(=O)c1ccc2nccc(-c3cc(C(F)(F)F)ccc3F)c2c1` [Example 25], for which the Ki ([3H]5-CT binding) was 10 to 100 nM.
As to `NC(N)=NC(=O)c1ccc2ncc(Cl)c(C3=CCCCC3)c2c1` [Example 102], the Ki ([3H]5-CT binding) was 1 to 10 nM.
In the case of `Cc1cc(C(=O)N=C(N)N)cc2c(C3CC3)ccnc12` [Example 71], where the note is “[3H]5-CT binding”, the Ki was 10 to 100 nM.
The same measure, in the same setting: to `NC(N)=NC(=O)c1ccc2c(F)cnc(-c3c(O)cccc3F)c2c1` [Example 216] belongs 1 to 10 nM; to `Cc1nc2ccc(C(=O)N=C(N)N)cc2c(-c2ccccc2Cl)c1Cl` [Example 130], 1 to 10 nM; to `Cc1cnc2ccc(C(=O)N=C(N)N)cc2c1-c1c(F)cc(F)cc1F` [Example 17], 1 to 10 nM.
For the compound `CC(C)c1cnc(-c2c(F)cccc2F)c2cc(C(=O)N=C(N)N)ccc12` [Example 158], where the note is “[3H]5-CT binding”, the Ki is 10 to 100 nM.
On the same count and under the same terms, to `Cc1ccc(-c2ccnc3c(C)cc(C(=O)N=C(N)N)cc23)c(F)c1` [Example 68] belongs 10 to 100 nM.
On to `NC(N)=NC(=O)c1ccc2ncc(C(F)(F)F)c(-c3ccc(F)cc3F)c2c1` [Example 86], for which the inhibition constant Ki ([3H]5-CT binding) was 10 to 100 nM.
In the case of `NC(N)=NC(=O)c1ccc2cncc(-c3ccc(F)cc3F)c2c1` [Example 228], for the setting “[3H]5-CT binding”, the Ki was 10 to 100 nM.
On to `Cc1cc(C(=O)N=C(N)N)cc2c(-c3ccccc3F)c(Cl)cnc12` [Example 101], for which the Ki ([3H]5-CT binding) is 1 to 10 nM.
In the case of `NC(N)=NC(=O)c1cnc2cccc(-c3c(F)cc(F)cc3F)c2c1` [Example 227], where the note is “[3H]5-CT binding”, the Ki is 10 to 100 nM.
Consider `NC(N)=NC(=O)c1ccc2c(F)cnc(-c3ccc(Cl)cc3)c2c1` [Example 191], for which the Ki ([3H]5-CT binding) was 10 to 100 nM.
Same read-out and setting: to `Cc1cc(C(=O)N=C(N)N)cc2c(C3CC3)c(Cl)cnc12` [Example 103] belongs 10 to 100 nM; to `Cc1cc(-c2c(F)cc(F)cc2Cl)c2cc(C(=O)N=C(N)N)ccc2n1` [Example 124], 10 to 100 nM.
Still for that read-out and setting: to `NC(N)=NC(=O)c1ccc2nccc(-c3c(Cl)cccc3Cl)c2c1` [Example 19] belongs 1 to 10 nM.
Consider `NC(N)=NC(=O)c1ccc2nccc(-c3ccc(F)cc3Cl)c2c1` [Example 15], for which the Ki ([3H]5-CT binding) is 1 to 10 nM.
Consider `NC(N)=NC(=O)c1ccc2c(F)cnc(-c3cccc(Cl)c3O)c2c1` [Example 199], for which the Ki ([3H]5-CT binding) is 10 to 100 nM.
In the case of `NC(N)=NC(=O)c1ccc2c(Cl)cnc(-c3ccc(F)cc3F)c2c1` [Example 211], the Ki runs as follows: ([3H]5-CT binding inhibition) 2.3 nM; ([3H]5-CT binding) 1 to 10 nM.
As to `Cc1cc(-c2ccc(F)cc2Cl)c2cc(C(=O)N=C(N)N)cc(C)c2n1` [Example 91], the Ki ([3H]5-CT binding) was 1 to 10 nM.
Take `Cc1cnc(-c2c(F)cccc2Cl)c2cc(C(=O)N=C(N)N)ccc12` [Example 206]: the Ki ([3H]5-CT binding) was 1 to 10 nM.
Regarding `NC(N)=NC(=O)c1ccc2nc(C(F)(F)F)cc(-c3c(F)cc(F)cc3F)c2c1` [Example 90], the Ki ([3H]5-CT binding) was 10 to 100 nM.
The same measure, in the same setting: to `CCc1cc(-c2c(F)cc(F)cc2F)c2cc(C(=O)N=C(N)N)ccc2n1` [Example 87] belongs 10 to 100 nM; to `Cc1cc2ccc(C(=O)N=C(N)N)cc2c(-c2c(F)cccc2F)n1` [Example 155], 10 to 100 nM.
Same read-out and setting: to `NC(N)=NC(=O)c1ccc2cccc(-c3c(F)cc(F)cc3F)c2n1` [Example 226] belongs 1 to 10 nM.
For `NC(N)=NC(=O)c1ccc2c(F)cnc(-c3cccc(F)c3Cl)c2c1` [Example 200], the Ki ([3H]5-CT binding) is 1 to 10 nM.
For the compound `Cc1cnc2ccc(C(=O)N=C(N)N)cc2c1-c1cccc(Cl)c1Cl` [Example 24], the Ki ([3H]5-CT binding) is 1 to 10 nM.
As to `Cc1nc2ccc(C(=O)N=C(N)N)cc2c(-c2c(F)cccc2Cl)c1C` [Example 121], the Ki ([3H]5-CT binding) is 1 to 10 nM.
Regarding `Cc1nc2ccc(C(=O)N=C(N)N)cc2c(-c2ccc(F)cc2F)c1Cl` [Example 88], the Ki ([3H]5-CT binding) is 1 to 10 nM.
As to `NC(N)=NC(=O)c1ccc2c(F)cnc(-c3cccc(Cl)c3F)c2c1` [Example 201], the Ki ([3H]5-CT binding) is 1 to 10 nM.
For `NC(N)=NC(=O)c1ccc2ncc(Cl)c(C3=CCCC3)c2c1` [Example 107], for the setting “[3H]5-CT binding”, the Ki was 1 to 10 nM.
Consider `N#Cc1ccccc1-c1ccnc2ccc(C(=O)N=C(N)N)cc12` [Example 12], for which the Ki ([3H]5-CT binding) was 100 to 300 nM.
For `NC(N)=NC(=O)c1ccc2nccc(-c3cc(Cl)ccc3Cl)c2c1` [Example 18], the Ki ([3H]5-CT binding) is 10 to 100 nM.
Regarding `NC(N)=NC(=O)c1ccc2nccc(-c3cc(Cl)c(F)cc3F)c2c1` [Example 20], the Ki ([3H]5-CT binding) is 10 to 100 nM.
Turning to `Cc1nc2ccc(C(=O)N=C(N)N)cc2c(-c2c(F)cncc2F)c1C` [Example 131], the Ki ([3H]5-CT binding) was 10 to 100 nM.
The same measure, in the same setting: to `COc1ccc(-c2c(Cl)cnc3ccc(C(=O)N=C(N)N)cc23)cc1` [Example 93] belongs 1 to 10 nM; to `NC(N)=NC(=O)c1ccc2c(Cl)cnc(C3CC3)c2c1` [Example 198], 1 to 10 nM.
As to `NC(N)=NC(=O)c1ccc2nccc(-c3c(F)cncc3F)c2c1` [Example 52], the inhibitory constant (Ki) ([3H]5-CT binding) was 10 to 100 nM.
Take `NC(N)=NC(=O)c1ccc2ccnc(-c3ccccc3)c2c1` [Example 133]: the Ki ([3H]5-CT binding) is 10 to 100 nM.
For the compound `NC(N)=NC(=O)c1cc(Cl)c2nccc(-c3c(F)cc(F)cc3F)c2c1` [Example 43], the Ki ([3H]5-CT binding) is 10 to 100 nM.
On the same count and under the same terms, in the case of `Cc1nc2ccc(C(=O)N=C(N)N)cc2c(-c2ccccc2F)c1C` [Example 105] it was 10 to 100 nM; in that of `NC(N)=NC(=O)c1ccc2c(F)cnc(-c3ccncc3F)c2c1` [Example 165], 10 to 100 nM.
Still for that read-out and setting: in the case of `Cc1nc2ccc(C(=O)N=C(N)N)cc2c(-c2ccc(F)cc2Cl)c1Cl` [Example 132] it was 1 to 10 nM; in that of `NC(N)=NC(=O)c1ccc2c(F)cnc(-c3c(F)cc(F)cc3F)c2c1` [Example 144], 1 to 10 nM.
Take `COc1cc(F)ccc1-c1ncc(F)c2ccc(C(=O)N=C(N)N)cc12` [Example 202]: the Ki ([3H]5-CT binding) is 10 to 100 nM.
Same read-out and setting: to `Cc1cc(-c2ccc(F)cc2F)c2cc(C(=O)N=C(N)N)cc(C)c2n1` [Example 85] belongs 1 to 10 nM; to `Cc1ccccc1-c1ncc(Cl)c2ccc(C(=O)N=C(N)N)cc12` [Example 213], 1 to 10 nM.
On the same count and under the same terms, to `COc1cccc(Cl)c1-c1ncc(F)c2ccc(C(=O)N=C(N)N)cc12` [Example 203] belongs 1 to 10 nM.
Turning to `NC(N)=NC(=O)c1ccc2c(F)cnc(-c3c(F)cncc3Cl)c2c1` [Example 164], the Ki was 4.7 nM ([3H]5-CT binding inhibition) and 1 to 10 nM ([3H]5-CT binding).
Consider `NC(N)=NC(=O)c1ccc2ncc(Cl)c(-c3ccncc3F)c2c1` [Example 104], for which the Ki ([3H]5-CT binding) was 1 to 10 nM.
On the same count and under the same terms, in the case of `NC(N)=NC(=O)c1ccc2ncc(Cl)c(C3CC3)c2c1` [Example 76] it was 10 to 100 nM.

A word on the Ki: it is a measure of affinity in units of concentration, obtained from inhibition or displacement.

The values above are taken from patent US8853242B2, “Nitrogenous-ring acylguanidine derivative” (Astellas Pharma Inc., priority 2009, dated 2014).
